From patent EP4711368A1 (priority 2023, dated 2024)
Like-named read-outs stand apart in the source and are kept apart here.

Experiments:
[1] = tested on: SD rats; conditions: rat, in vivo; for MLD: iv
[2] = tested on: SD rats; test: animal or person; type: in vivo; conditions: iv; for minimal effective dose: Rattus norvegicus; for Onset time / Righting feflex duration / Minimal effective anesthetic dose / Sedation Duration: rat, in vivo
[3] = read-out: Minimal effective analgesic dose
[4] = read-out: Minimal effective anesthetic dose

| SMILES | MLD ([1]; SD) [mg/kg] | Onset time [2] [min] | Righting feflex duration [2] [min] | MLD [1] [mg/kg] | Sedation Duration [2] [min] | also measured |
| --- | --- | --- | --- | --- | --- | --- |
| Cc1cnc2n1-c1ccc(Br)cc1C(c1ccccn1)=NN2COC(=O)N(C)C [Compound 320] | 30 | 0.65 to 0.92 | 2.03 to 5.98 |  |  | TI ([1]; SD): 2; minimal effective dose [2, 3]: 15 mg/kg; minimal effective dose [2, 4]: 15 mg/kg |
| Cc1cnc2n1-c1ccc(Br)cc1C(c1ccccn1)=NC2CCOC(=O)C1COC1 (stereo not shown) [Compound 153] |  | 0.3 to 0.4 | 2.9 to 5.8 | 20 | 20.0 to 21.9 | TI [1]: 2.7; Minimal effective anesthetic dose [2]: 7.5 mg/kg |
| CC(C)OC(=O)OCCN1N=C(c2ccccn2)c2cc(Br)ccc2N(C)C1=O [Compound 302] | 20 |  |  |  |  |  |
| CCOc1nonc1CCN1N=C(c2ccccn2)c2cc(Br)ccc2N(C)C1=O [Compound 274] | >27.4 | 0.18 | 4.57 |  | 25.87 | TI ([1]; SD): >1; minimal effective dose [2, 4]: 27.4 mg/kg |
| CN1C(=O)C(CO)N=C(c2ccccn2)c2cc(Br)ccc21 (stereo not shown) [Compound 37] |  | 0.3 to 0.6 | 0.7 to 5.8 | >10 | 15.3 to 21.3 | TI [1]: >2.0; Minimal effective anesthetic dose [2]: 5.0 mg/kg |
| COC(=O)CCC1N=C(c2ccccn2)c2cc([N+](=O)[O-])ccc2N(C)C1=O (stereo not shown) [Compound 27] |  | 0.2 to 0.5 | 1.3 to 3.9 | >18 | 4.4 to 10.7 | TI [1]: >1.8; Minimal effective anesthetic dose [2]: 10.0 mg/kg |
| CCOC(=O)CN1N=C(c2ccccn2)C=CN(C)C1=O [Compound 347] |  | 0.13 to 0.28 | 2.25 to 4.47 | 40 | 15.35 to 54.20 | TI ([1]; SD): 2; minimal effective dose [2, 3]: 20 mg/kg; minimal effective dose [2, 4]: 20 mg/kg |
| COC(=O)CC1N=C(c2ccccn2)c2cc(Br)ccc2N(C)C1=O (stereo not shown) [Compound 113] |  | 0.2 to 0.3 | 0.7 to 29.5 | 40 | 20.6 to 77.7 | TI [1]: 2.7; Minimal effective anesthetic dose [2]: 15.0 mg/kg |
| Cc1cnc2n1-c1ccc(Br)cc1C(c1ccccn1)=NC2CCOCc1ccccc1 (stereo not shown) [Compound 144] |  |  |  | 3.8 |  |  |
| COC(=O)CCN1N=C(c2ccccn2)c2cc(Br)ccc2N(C)C1=O [Compound 259] | >20 |  |  |  |  |  |
| Cc1ccc(C(=O)OCC2N=C(c3ccccn3)c3cc(Br)ccc3-n3c(C)cnc32)cc1 (stereo not shown) [Compound 192] |  | 0.2 to 0.4 | 5.9 to 14.9 | 10.0 | 156.7 to 200.0 | TI [1]: 2.0; Minimal effective anesthetic dose [2]: 5.0 mg/kg |
| CN1C(=O)N(COC(=O)CCCl)N=C(c2ccccn2)c2cc(Br)ccc21 [Compound 290] | 20 | 0.45 | 6.63 |  | 18.08 | TI ([1]; SD): 1.3; minimal effective dose [2, 3]: 15 mg/kg; minimal effective dose [2, 4]: 15 mg/kg |
| CC(=O)OCCC1N=C(c2ccccn2)c2cc(Br)ccc2N(C)C1=O (stereo not shown) [Compound 115] |  | 0.2 to 0.4 | 4.9 to 14.1 | 40 | 12.4 to 56.0 | TI [1]: 16; Minimal effective anesthetic dose [2]: 2.5 mg/kg |
| CC(C)OC(=O)OCN1N=C(c2ccccn2)c2cc(Br)ccc2N(C)C1=O [Compound 289] | 41.7 | 0.15 to 0.68 | 0.53 to 32.23 |  | 20.27 to 311.87 | TI ([1]; SD): 8.3; minimal effective dose [2, 3]: 20 mg/kg; minimal effective dose [2, 4]: 5 mg/kg |
| CC(C)C(C)OC(=O)CN1N=C(c2ccccn2)c2cc(Br)ccc2N(C)C1=O (stereo not shown) [Compound 249] | 20 | 0.50 to 0.62 | 6.55 to 13.37 |  | 23.30 to 42.37 | TI ([1]; SD): 2; minimal effective dose [2, 3]: 15 mg/kg; minimal effective dose [2, 4]: 10 mg/kg |
| CC(C)OC(=O)CN1C2=NCCN2N=C(c2ccccn2)c2cc(Br)ccc21 [Compound 325] | >40 | 0.65 | 3.65 |  | 59.22 | TI ([1]; SD): >1; minimal effective dose [2, 3]: 40 mg/kg; minimal effective dose [2, 4]: 40 mg/kg |
| C=CC1(OC(=O)CCN2N=C(c3ccccn3)c3cc(Br)ccc3N(C)C2=O)COC1 [Compound 262] | >20 |  |  |  |  |  |
| C=CC1(OC(=O)CN2N=C(c3ccccn3)c3cc(Br)ccc3N(C)C2=O)COC1 [Compound 254] | 20 | 0.60 to 0.65 | 0.78 to 3.10 |  | 29.25 to 40.22 | TI ([1]; SD): 2; minimal effective dose [2, 4]: 10 mg/kg |
| CN(C)C(=O)OCN1N=C(c2ccccn2)c2cc(Br)ccc2N(C)C1=O [Compound 291] | 30 | 0.65 to 0.92 | 2.03 to 5.98 |  |  | TI ([1]; SD): 2; minimal effective dose [2, 3]: 15 mg/kg; minimal effective dose [2, 4]: 15 mg/kg |
| CN1C(=O)N(C[n+]2ccccc2)N=C(c2ccccn2)c2cc(Br)ccc21 [Compound 297] | 5 |  |  |  |  |  |
| Cc1cnc2n1-c1ccc(Br)cc1C(c1ccccn1)=NN2COC(=O)CCCl [Compound 319] | >10 | 0.38 to 0.48 | 7.58 to 8.00 |  | 21.82 to 52.53 | TI ([1]; SD): >1.3; minimal effective dose [2, 4]: 7.5 mg/kg |
| CCOC(=O)CN1N=C(c2ccccn2)c2cc(Br)ccc2N=C1SC [Compound 306] |  |  |  | 40 |  |  |
| CCN(C(=O)OCN1N=C(c2ccccn2)c2cc(Br)ccc2N(C)C1=O)C(C)C [Compound 296] | 15 |  |  |  |  |  |
| Brc1ccc2c(c1)C(c1ccccn1)=NN1CCN=C1N2 [Compound 323] | >40 | 0.95 to 1.07 | 13.12 to 21.08 |  |  | TI ([1]; SD): >1.3; minimal effective dose [2, 3]: 30 mg/kg; minimal effective dose [2, 4]: 30 mg/kg |
| CC(C)N(C)C(=O)OCN1N=C(c2ccccn2)c2cc(Br)ccc2N(C)C1=O [Compound 293] | 20 | 0.95 | 4.20 |  | 82.85 | TI ([1]; SD): 1.3; minimal effective dose [2, 3]: 15 mg/kg; minimal effective dose [2, 4]: 15 mg/kg |

| SMILES | MLD ([1]; SD) [mg/kg] | Onset time [2] [min] | Righting feflex duration [2] [min] | MLD [1] [mg/kg] | Sedation Duration [2] [min] | also measured |
| --- | --- | --- | --- | --- | --- | --- |
| CC(C)OC(=O)CC1N=C(c2ccccn2)c2cc(Br)ccc2N(C)C1=O (stereo not shown) [Compound 114] |  | 0.4 to 1.1 | 0.8 to 27.6 | 20 | 16.5 to 140.3 | TI [1]: 40.0; Minimal effective anesthetic dose [2]: 0.5 mg/kg |
| O=CN1CCN2N=C(c3ccccn3)c3cc(Br)ccc3N=C12 [Compound 322] |  |  |  | 34 |  |  |
| COc1cc(CCN2N=C(c3ccccn3)c3cc(Br)ccc3N(C)C2=O)on1 [Compound 270] | 29.64 |  |  |  |  |  |
| CCOC(=O)C(C(C)C)N1N=C(c2ccccn2)c2cc(Br)ccc2N(C)C1=O (stereo not shown) [Compound 278] |  |  |  | 40 |  |  |
| CN1C(=O)N(CCC#N)N=C(c2ccccn2)c2cc(Br)ccc21 [Compound 263] | 40 |  |  |  |  |  |
| COC(=O)CCC1N=C(c2ccccn2)c2cc3nc(C(F)(F)F)sc3cc2N(C)C1=O (stereo not shown) [Compound 180] |  |  |  | 40 |  |  |
| CN1C(=O)N(CCOC(=O)CCCl)N=C(c2ccccn2)c2cc(Br)ccc21 [Compound 299] | 15 |  |  |  |  |  |
| CCn1nnc(CCN2N=C(c3ccccn3)c3cc(Br)ccc3N(C)C2=O)n1 [Compound 265] |  |  |  | 40 |  |  |
| C=CC(=O)OCCN1N=C(c2ccccn2)c2cc(Br)ccc2N(C)C1=O [Compound 301] | 27.4 |  |  |  |  |  |
| Cc1c[n+]2c3n1-c1ccc(Br)cc1C(c1ccccn1)=NN3CC2 [Compound 321] | 10 |  |  |  |  |  |
| CCC(CN1N=C(c2ccccn2)c2cc(Br)ccc2N(C)C1=O)OC(=O)C(C)C (stereo not shown) [Compound 282] |  |  |  | 15 |  |  |
| CC(C)OC(=O)C(C)N1N=C(c2ccccn2)c2cc(Br)ccc2N(C)C1=O (stereo not shown) [Compound 277] | 20 |  |  |  |  |  |
| Cc1cnc2n1-c1ccc(Br)cc1C(c1ccccn1)=NN2CCOC(=O)OC(C)C [Compound 316] | 10 |  |  |  |  |  |
| CN(C)C(=O)CN1N=C(c2ccccn2)c2cc(Br)ccc2N(C)C1=O [Compound 258] | 40 |  |  |  |  |  |
| CC(C)C(=O)OC(CN1N=C(c2ccccn2)c2cc(Br)ccc2N(C)C1=O)C(C)C (stereo not shown) [Compound 280] | 10 |  |  |  |  |  |
| CCn1nnc(CN2N=C(c3ccccn3)c3cc(Br)ccc3N(C)C2=O)n1 [Compound 269] | >36 |  |  |  |  |  |
| CCOC(=O)C(C)N1N=C(c2ccccn2)c2cc(Br)ccc2N(C)C1=O (stereo not shown) [Compound 276] | 20 |  |  |  |  |  |
| CCC(=O)CN1N=C(c2ccccn2)c2cc(Br)ccc2N(C)C1=O [Compound 281] | 40 |  |  |  |  |  |
| CN1C2=NCCN2N=C(c2ccccn2)c2cc(Br)ccc21 [Compound 324] | >15.7 |  |  |  |  |  |
| CC(C)Oc1cc(CCN2N=C(c3ccccn3)c3cc(Br)ccc3N(C)C2=O)on1 [Compound 272] | 30 |  |  |  |  |  |
| CCOc1cc(CCN2N=C(c3ccccn3)c3cc(Br)ccc3N(C)C2=O)on1 [Compound 271] | 30 |  |  |  |  |  |
| CN1C(=O)N(CCc2cc(Br)no2)N=C(c2ccccn2)c2cc(Br)ccc21 [Compound 283] | 40 |  |  |  |  |  |
| CCn1nnnc1CN1N=C(c2ccccn2)c2cc(Br)ccc2N(C)C1=O [Compound 268] |  |  |  | 40 |  |  |
| CN1C(=O)C(CCOC(=O)OC2COC2)N=C(c2ccccn2)c2cc(Br)ccc21 (stereo not shown) [Compound 134] |  |  |  | 20 |  |  |
| CN1C(=O)N(CCOCc2ccccc2)N=C(c2ccccn2)c2cc(Br)ccc21 [Compound 285] | 15 |  |  |  |  |  |
